We go through 13 compounds from patent publication US11542273B2, “Amide compound having bet proteolysis-inducing action and medicinal application thereof” (MITSUBISHI TANABE PHARMA CORPORATION, priority 2018, dated 2023).

In one test the target is BRD4 protein (Homo sapiens (Human), UniProt O60885). Briefly: BRD4 protein degradation inducing action in cancer cells (immunofluorescence, Operetta). The conditions noted are these: LNCaP cells, 6 hr treatment, fluorescence intensity. It is filed as cell-based. The gist of the method: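 DC50 = compound concentration reducing BRD4 immunofluorescence to 50% of untreated cells, interpolated between the two flanking concentrations. Treatment: LNCaP cells, 6 hr, 10% FBS/RPMI1640, 37° C. Cells were then fixed, permeabilized, stained with anti-BRD4 and Alexa Fluor 488 or 546 secondaries, and imaged.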

Test [1] has as its system human prostate cancer LNCaP cells. Briefly: Cytotoxic action on cancer cells (WST-8, 96 hr). It is filed as cell-based. The conditions noted are these: Homo sapiens, LNCaP, 96 h, read-out: LNCaP cytotoxic activity: IC50. The gist of the method: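 Viability was read by WST-8 after 96 hr of compound exposure, normalised to untreated wells, with cells pre-cultured overnight in 10% FBS/RPMI1640 at 37 °C and 5% CO2. IC50 comes from a straight line between the two survival points enclosing 50%.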

With `COC(=O)C[C@@H]1N=C(c2ccc(-c3cc(C(=O)N[C@H](C(=O)N4C[C@H](O)C[C@H]4C(=O)N[C@@H](C)c4ccc(-c5scnc5C)cc4)C(C)(C)C)cc(F)c3F)cc2)c2c(sc(C)c2C)-n2c(C)nnc21` [Example 173, methyl {(6S)-4-[2′,3′-difluoro-5′-({(2S)-1-[(2S,4R)-4-hydroxy-2-({(1S)-1-[4-(4-methyl-1,3-thiazol-5-yl)phenyl]ethyl}carbamoyl)pyrrolidin-1-yl]-3,3-dimethyl-1-oxobutan-2-yl}carbamoyl)[1,1′-biphenyl]-4-yl]-2,3,9-trimethyl-6H-thieno[3,2-f][1,2,4]triazolo[4,3-a][1,4]diazepin-6-yl}acetate], it took 0.53 nM to reach half-maximal degradation on BRD4 protein (DC50). The IC50 in test [1] amounted to 0.53 nM.
Consider `COC(=O)C[C@@H]1N=C(c2ccc(-c3cccc4c3CN(CC(=O)N[C@H](C(=O)N3C[C@H](O)C[C@H]3C(=O)N[C@@H](C)c3ccc(-c5scnc5C)cc3)C(C)(C)C)CC4)cc2)c2c(sc(C)c2C)-n2c(C)nnc21` [Example 147, methyl [(6S)-4-(4-{2-[2-({(2S)-1-[(2S,4R)-4-hydroxy-2-({(1S)-1-[4-(4-methyl-1,3-thiazol-5-yl)phenyl]ethyl}carbamoyl)pyrrolidin-1-yl]-3,3-dimethyl-1-oxobutan-2-yl}amino)-2-oxoethyl]-1,2,3,4-tetrahydroisoquinolin-8-yl}phenyl)-2,3,9-trimethyl-6H-thieno[3,2-f] [1,2,4]triazolo[4,3-a][1,4]diazepin-6-yl]acetate], for which, at BRD4 protein, the DC50 came out at 0.28 nM. The IC50 in test [1] amounted to 0.34 nM.
With `COC(=O)C[C@@H]1N=C(c2ccc(-c3ccc(C(=O)N[C@H](C(=O)N4C[C@H](O)C[C@H]4C(=O)NCc4ccc(-c5ocnc5C)cc4)C(C)(C)C)cc3)cc2)c2c(sc(C)c2C)-n2c(C)nnc21` [Example 218, methyl {(6S)-4-[4′-({(2S)-1-[(2S,4R)-4-hydroxy-2-({[4-(4-methyl-1,3-oxazol-5-yl)phenyl]methyl}carbamoyl)pyrrolidin-1-yl]-3,3-dimethyl-1-oxobutan-2-yl}carbamoyl) [1,1′-biphenyl]-4-yl]-2,3,9-trimethyl-6H-thieno [3,2-f][1,2,4]triazolo [4,3-a] [1,4]diazepin-6-yl}acetate], the DC50 on BRD4 protein stood at 0.41 nM. Further, the IC50 in test [1] worked out at 0.37 nM.
The like results for `COC(=O)C[C@@H]1N=C(c2ccc(-c3ccc(OCC(=O)N[C@H](C(=O)N4C[C@H](O)C[C@H]4C(=O)N[C@@H](C)c4ccc(-c5scnc5C)cc4)C(C)(C)C)cc3)cc2)c2c(sc(C)c2C)-n2c(C)nnc21` [Example 15, methyl [(6S)-4-{4′-[2-({(2S)-1-[(2S,4R)-4-hydroxy-2-({(1S)-1-[4-(4-methyl-1,3-thiazol-5-yl)phenyl]ethyl}carbamoyl)pyrrolidin-1-yl]-3,3-dimethyl-1-oxobutan-2-yl}amino)-2-oxoethoxy][1,1′-biphenyl]-4-yl}-2,3,9-trimethyl-6H-thieno[3,2-f][1,2,4]triazolo[4,3-a][1,4]diazepin-6-yl]acetate] were, in that order, 0.066 nM and 0.083 nM.
With `COC(=O)C[C@@H]1N=C(c2ccc(-c3ccc(NCC(=O)N[C@H](C(=O)N4C[C@H](O)C[C@H]4C(=O)N[C@@H](C)c4ccc(-c5scnc5C)cc4)C(C)(C)C)cc3)cc2)c2c(sc(C)c2C)-n2c(C)nnc21` [Example 45, methyl [(6S)-4-(4′-{[2-({(2S)-1-[(2S,4R)-4-hydroxy-2-({(1S)-1-[4-(4-methyl-1,3-thiazol-5-yl)phenyl]ethyl}carbamoyl)pyrrolidin-1-yl]-3,3-dimethyl-1-oxobutan-2-yl}amino)-2-oxoethyl]amino}[1,1′-biphenyl]-4-yl)-2,3,9-trimethyl-6H-thieno[3,2-f][1,2,4]triazolo[4,3-a] [1,4]diazepin-6-yl]acetate], the half-maximal degradation concentration (DC50) at BRD4 protein came to 0.051 nM. Also, the IC50 in test [1] amounted to 0.32 nM.
As to `COC(=O)C[C@@H]1N=C(c2ccc(-c3ccc(C(=O)N[C@H](C(=O)N4C[C@H](O)C[C@H]4C(=O)N[C@@H](C)c4ccc(-c5scnc5C)cc4)C(C)(C)C)c(C)c3)cc2)c2c(sc(C)c2C)-n2c(C)nnc21` [Example 183, methyl {(6S)-4-[4′-({(2S)-1-[(2S,4R)-4-hydroxy-2-({(1S)-1-[4-(4-methyl-1,3-thiazol-5-yl)phenyl]ethyl}carbamoyl)pyrrolidin-1-yl]-3,3-dimethyl-1-oxobutan-2-yl}carbamoyl)-3′-methyl[1,1′-biphenyl]-4-yl]-2,3,9-trimethyl-6H-thieno[3,2-f][1,2,4]triazolo[4,3-a][1,4]diazepin-6-yl}acetate], on BRD4 protein, half-maximal degradation (DC50) was put at 0.93 nM. Also, the IC50 in test [1] worked out at 1.5 nM.
For `COC(=O)C[C@@H]1N=C(c2ccc(-c3cccc(C(=O)N[C@H](C(=O)N4C[C@H](O)C[C@H]4C(=O)N[C@@H](C)c4ccc(-c5scnc5C)cc4)C(C)(C)C)c3)cc2)c2c(sc(C)c2C)-n2c(C)nnc21` [Example 60, methyl {(6S)-4-[3′-({(2S)-1-[(2S,4R)-4-hydroxy-2-({(1S)-1-[4-(4-methyl-1,3-thiazol-5-yl)phenyl]ethyl}carbamoyl)pyrrolidin-1-yl]-3,3-dimethyl-1-oxobutan-2-yl}carbamoyl)[1,1′-biphenyl]-4-yl]-2,3,9-trimethyl-6H-thieno[3,2-f][1,2,4]triazolo[4,3-a][1,4]diazepin-6-yl}acetate], the DC50 at BRD4 protein amounted to 0.74 nM. Moreover, in test [1], the IC50 came to 0.12 nM.
The like results for `COC(=O)C[C@@H]1N=C(c2ccc(-c3ccc(C(=O)N[C@H](C(=O)N4C[C@H](O)C[C@H]4C(=O)N[C@@H](C)c4ccc(-c5scnc5C)cc4)C(C)(C)C)s3)cc2)c2c(sc(C)c2C)-n2c(C)nnc21` [Example 141, methyl [(6S)-4-{4-[5-({(2S)-1-[(2S,4R)-4-hydroxy-2-({(1S)-1-[4-(4-methyl-1,3-thiazol-5-yl)phenyl]ethyl}carbamoyl)pyrrolidin-1-yl]-3,3-dimethyl-1-oxobutan-2-yl}carbamoyl)thiophen-2-yl]phenyl}-2,3,9-trimethyl-6H-thieno[3,2-f][1,2,4]triazolo[4,3-a][1,4]diazepin-6-yl]acetate] were, in that order, 0.72 nM and 0.38 nM.
Regarding `COC(=O)C[C@@H]1N=C(c2ccc(-c3ccc(OC(F)(F)C(=O)N[C@H](C(=O)N4C[C@H](O)C[C@H]4C(=O)N[C@@H](C)c4ccc(-c5scnc5C)cc4)C(C)(C)C)cc3)cc2)c2c(sc(C)c2C)-n2c(C)nnc21` [Example 122, methyl [(6S)-4-{4′-[1,1-difluoro-2-({(2S)-1-[(2S,4R)-4-hydroxy-2-({(1S)-1-[4-(4-methyl-1,3-thiazol-5-yl)phenyl]ethyl}carbamoyl)pyrrolidin-1-yl]-3,3-dimethyl-1-oxobutan-2-yl}amino)-2-oxoethoxy][1,1′-biphenyl]-4-yl}-2,3,9-trimethyl-6H-thieno[3,2-f][1,2,4]triazolo[4,3-a][1,4]diazepin-6-yl]acetate], half-maximal degradation at BRD4 protein (DC50) was put at 0.097 nM. The 50% inhibitory concentration (IC50) in test [1] was found to be 0.4 nM.
`COC(=O)C[C@@H]1N=C(c2ccc(-c3c(F)ccc(C(=O)N[C@H](C(=O)N4C[C@H](O)C[C@H]4C(=O)N[C@@H](C)c4ccc(-c5scnc5C)cc4)C(C)(C)C)c3F)cc2)c2c(sc(C)c2C)-n2c(C)nnc21` [Example 174, methyl {(6S)-4-[2′,6′-difluoro-3′-({(2S)-1-[(2S,4R)-4-hydroxy-2-({(1S)-1-[4-(4-methyl-1,3-thiazol-5-yl)phenyl]ethyl}carbamoyl)pyrrolidin-1-yl]-3,3-dimethyl-1-oxobutan-2-yl}carbamoyl)[1,1′-biphenyl]-4-yl]-2,3,9-trimethyl-6H-thieno[3,2-f][1,2,4]triazolo[4,3-a][1,4]diazepin-6-yl}acetate] yielded a DC50 on BRD4 protein of 0.31 nM. Also, the IC50 in test [1] worked out at 0.37 nM.
With `COC(=O)C[C@@H]1N=C(c2ccc(-c3cccc(C(=O)N[C@H](C(=O)N4C[C@H](O)C[C@H]4C(=O)N[C@@H](C)c4ccc(-c5scnc5C)cc4)C(C)(C)C)n3)cc2)c2c(sc(C)c2C)-n2c(C)nnc21` [Example 113, methyl [(6S)-4-{4-[6-({(2S)-1-[(2S,4R)-4-hydroxy-2-({(1S)-1-[4-(4-methyl-1,3-thiazol-5-yl)phenyl]ethyl}carbamoyl)pyrrolidin-1-yl]-3,3-dimethyl-1-oxobutan-2-yl}carbamoyl)pyridin-2-yl]phenyl}-2,3,9-trimethyl-6H-thieno[3,2-f][1,2,4]triazolo[4,3-a][1,4]diazepin-6-yl]acetate], at BRD4 protein, the DC50 was determined as 0.075 nM. Also, in test [1], the IC50 is 0.096 nM.
The like results for `Cc1ncsc1-c1ccc([C@H](C)NC(=O)[C@@H]2C[C@@H](O)CN2C(=O)[C@@H](NC(=O)CCCCCc2ccc(C3=N[C@@H](C)c4nnc(C)n4-c4sc(C)c(C)c43)cc2)C(C)(C)C)cc1` [Example 193, (2S,4R)-1-{(2S)-3,3-dimethyl-2-[(6-{4-[(6S)-2,3,6,9-tetramethyl-6H-thieno[3,2-f][1,2,4]triazolo[4,3-a] [1,4]diazepin-4-yl]phenyl}hexanoyl)amino]butanoyl}-4-hydroxy-N-{(1S)-1-[4-(4-methyl-1,3-thiazol-5-yl)phenyl]ethyl}pyrrolidine-2-carboxamide] were, in that order, 0.62 nM and 0.3 nM.
The like results for `COC(=O)C[C@@H]1N=C(c2ccc(-c3cc(F)cc(C(=O)N[C@H](C(=O)N4C[C@H](O)C[C@H]4C(=O)N[C@@H](C)c4ccc(-c5scnc5C)cc4)C(C)(C)C)c3F)cc2)c2c(sc(C)c2C)-n2c(C)nnc21` [Example 175, methyl {(6S)-4-[2′,5′-difluoro-3′-({(25)-1-[(2S,4R)-4-hydroxy-2-({(1S)-1-[4-(4-methyl-1,3-thiazol-5-yl)phenyl]ethyl}carbamoyl)pyrrolidin-1-yl]-3,3-dimethyl-1-oxobutan-2-yl}carbamoyl)[1,1′-biphenyl]-4-yl]-2,3,9-trimethyl-6H-thieno[3,2-f][1,2,4]triazolo[4,3-a][1,4]diazepin-6-yl}acetate] were, in that order, 0.5 nM and 0.3 nM.

One may read the DC50 as the midpoint of the concentration-degradation curve. One may read the IC50 as the concentration at which inhibition is half-maximal.
